tested on: Plasmodium falciparum; assay: GSK_TCMDC: Inhibition of Plasmodium falciparum 3D7 in whole erythrocytes, using parasite LDH activity as an index of growth.; format: functional, organism-based; settings: Plasmodium falciparum, 3D7

First: Nc1nc(N)c2c(Oc3cccc(Cl)c3)cccc2n1
Second: Cc1nc(N)nc(N)c1OCc1ccc(Cl)c(Cl)c1
The XC50 of the first is 3.6-fold higher: 0.471 µM for the first, 0.131 µM for the second.

Compared with COc1cc(Cc2cnc(N)nc2N)cc(OCCCC(=O)O)c1OC, COc1cc(CCN(C)Cc2ccc(OC)c(OC)c2)ccc1NC(=O)c1cccc2c(O)c3cccc(F)c3nc12 is 5.8-fold lower in XC50: 1.18 µM for the first, 0.203 µM for the second.

Going from Cc1cnccc1/C=C/c1cccc(OCCCN2CCc3ccc(S(C)(=O)=O)cc3CC2)c1 to O=C(/C=C/c1ccc(F)cc1)NC1CCC(CCN2CCc3ccc(-n4cccn4)cc3CC2)CC1 (centres undefined), the XC50 rises from 0.615 µM to 1.44 µM (2.3-fold).

Going from Cc1ccc(NC(=O)Nc2cccc(Cl)c2)cc1-c1ccc(C(=O)Nc2ccncc2)cc1 to CN(C)C(CNC(=O)c1cc(-c2ccncc2)c(-c2ccc(NC(=O)Nc3cccc(Cl)c3)cc2)o1)c1ccccc1 (centres undefined), the XC50 falls from 0.738 µM to 0.183 µM (4-fold).

Compared with CC(C)COc1ccc(Cl)cc1Cc1ccc(-c2nc3ccc(F)c(F)c3[nH]2)o1, COc1ccc(Cl)cc1N1CCN(CCCNC(=O)c2ccc(-c3nc4cc(Cl)c(F)cc4[nH]3)s2)CC1 is 3-fold lower in XC50: 0.942 µM for the first, 0.314 µM for the second.

c1ccc(Oc2ccc(Nc3ccnc4ccc(-c5ccco5)cc34)cc2)cc1 and Cc1ccc(Oc2ccccc2NC(=O)CCc2nc3ccccc3c(=O)[nH]2)cc1 are within 1.5-fold of each other in XC50: 0.928 µM for the first, 0.827 µM for the second.

Going from COc1ccc(N2CCN(CCCCNC(=O)c3ccc(NC(=O)c4cc(C(F)(F)F)cc(C(F)(F)F)c4)cc3)CC2)cc1OC to CCOc1ccc(C2CCN(CCCCNC(=O)c3ccc(NC(=O)c4ccc(Cl)cc4)cc3)CC2)c(Cl)c1, the XC50 rises from 0.221 µM to 0.731 µM (3.3-fold).

N=C1c2ccccc2CN1CC(=O)c1ccc(Cl)c(Cl)c1 and CN1CCc2cc(Br)c(O)cc2C1Cc1ccccc1Cl (centres undefined) are within 1.5-fold of each other in XC50: 0.728 µM for the first, 0.667 µM for the second.

Cc1cccc(-c2ccc3c(c2)CC(NCc2cccc(-n4ccnc4)c2)C3)c1 (centres undefined) and Cc1cccc2nc(-c3cccc(-c4cccc(CNCCc5cccn5C)c4)c3)[nH]c12 are within 1.5-fold of each other in XC50: 0.874 µM for the first, 0.733 µM for the second.

CN(C)CCOc1cc(NC(=O)Nc2ccc3c(c2)CCCC3=O)ccc1I and CCOc1ncccc1CN1CCC(N2CCc3cc(NC(=O)c4ccco4)ccc32)C1 (centres undefined) are within 1.5-fold of each other in XC50: 0.939 µM for the first, 0.758 µM for the second.

First: CN1CCN(C(C(=O)NCc2cc(Cl)cc(Cl)c2)c2ccc(Nc3cccc(C(F)(F)F)c3)cc2)CC1 (centres undefined)
Second: OCCN1CCN(Cc2ccc(-c3cccc(-c4nc5cc(C(F)(F)F)ccc5[nH]4)c3)cc2)CC1
The XC50 of the first is 1.7-fold higher: 1.12 µM for the first, 0.642 µM for the second.

Going from COc1ccc2nccc([C@@H](O)CN3CCC(NC(=O)c4ccc(CN5CCN(c6cccc(C)c6)CC5C)cc4)CC3)c2c1 (some centres undefined) to COc1ccc2nccc([C@@H](O)CN3CCC(NC(=O)Cn4nc(-c5ccc(C(F)(F)F)cc5)ccc4=O)CC3)c2c1, the XC50 rises from 0.211 µM to 0.737 µM (3.5-fold).

Compared with Cc1nc(C)c(-c2ccc(Oc3ccc(Cl)cc3)c(Cl)c2)c(O)c1Br, CCn1c(Sc2ccc(C#N)c([N+](=O)[O-])c2)nnc1-c1ccc(OC)cc1 is 1.6-fold higher in XC50: 0.495 µM for the first, 0.805 µM for the second.

Compared with CCc1ccccc1N=C1c2c(cccc2[N+](=O)[O-])C(=O)C1C(C)=O (centres undefined), CCCCCn1c(Sc2ccc(C#N)c([N+](=O)[O-])c2)nnc1-c1ccccc1 is 9.5-fold higher in XC50: 0.0909 µM for the first, 0.86 µM for the second.

COc1ccc(Nc2nccc(-c3cccc(NC(=O)c4cc5cc(F)ccc5[nH]4)c3)n2)cc1 and Cn1cncc1C(=O)Nc1cccc(-c2ccc(-c3nc4ccccc4[nH]3)cc2)c1 are within 1.5-fold of each other in XC50: 1.03 µM for the first, 0.854 µM for the second.

COc1ccc(NC(=O)[C@H](CC(C)C)Nc2cc(C)nc(NCCc3ccccc3)n2)cc1 and COc1ccccc1CCNc1nc(C)cc(N[C@@H](CC(C)C)C(=O)NCCc2ccccc2)n1 are within 1.5-fold of each other in XC50: 0.888 µM for the first, 0.718 µM for the second.

Compared with OCC1CCN(Cc2ccc(-c3ccc(-c4nc5cc(C(F)(F)F)ccc5[nH]4)cc3)cc2)CC1, COc1ccc(CN2CCC(CNCc3cccc(-c4ccccc4)c3)CC2)cc1 is 3-fold lower in XC50: 0.697 µM for the first, 0.236 µM for the second.

Going from Cc1nc(-c2nc(NCc3ccncc3)ncc2-c2ccsc2)sc1C to Cc1nc2c(Nc3nc(-c4ccncc4)cs3)ncnc2n1-c1ccccc1Cl, the XC50 falls from 0.989 µM to 0.176 µM (5.6-fold).

First: CCCc1cc(OC)c(CC2c3cc(O)c(Cl)cc3C(c3ccccc3)CN2C)cc1OC (centres undefined)
Second: CCNC(=O)N1CCc2ccc(Oc3nc(NCc4ccccc4OC)ncc3C)cc2CC1
The XC50 of the first is 2.5-fold lower: 0.43 µM for the first, 1.07 µM for the second.

Cc1cc(CN2CCC(N3CC(c4ccccc4)(c4ccccc4)OCC3=O)C2)ccc1O (centres undefined) and O=C(NC1CCN(Cc2ccccc2)CC1)c1ccc(CNC2CCN(Cc3ccccc3)CC2)cc1 are within 1.5-fold of each other in XC50: 1.08 µM for the first, 0.872 µM for the second.

First: CC[C@H](C)[C@@H](C(=O)N1CCOCC1)N1CC[C@H](NS(=O)(=O)CC(C)(C)c2ccc(Cl)cc2)C1=O
Second: O=S(=O)(NC1CCN(c2ccnc3cc(Cl)ccc23)C1)c1ccc(C(F)(F)F)cc1 (centres undefined)
The XC50 of the first is 1.8-fold higher: 0.55 µM for the first, 0.298 µM for the second.

COc1c(C2CCN(CCCCNC(=O)C=Cc3cc4cc(Cl)ccc4o3)CC2)ccc2c1CCCC2 and O=C(/C=C/c1ccc(Cl)c(Cl)c1)NCCCCN1CCCN(C(=O)Nc2cc(Cl)cc(Cl)c2)CC1 are within 1.5-fold of each other in XC50: 1.31 µM for the first, 0.949 µM for the second.

First: Cc1cc(C)cc(OCC(O)CN(Cc2cc(Cl)cc(Cl)c2)C(=O)Nc2ccc([N+](=O)[O-])cc2)c1 (centres undefined)
Second: Cc1cc(C)cc(-n2c(C)cc(/C=C3\SC(=Nc4ccc(Cl)cc4)NC3=O)c2C)c1
The XC50 of the first is 12-fold higher: 0.804 µM for the first, 0.0658 µM for the second.

First: CN1CCN(C(=O)CN2CCC3(CCC2=O)NC(=O)c2ccccc2O3)CC1 (centres undefined)
Second: OC1(Cc2ccccc2)CCN(Cc2cccc(-c3c[nH]c4nc(NC5CCCC5)ncc34)c2)CC1
The XC50 of the first is 4.4-fold lower: 0.213 µM for the first, 0.929 µM for the second.

COc1ccc(-c2ccc(NC(=O)c3cccc(C#N)c3)cc2)cc1CN1CCC(O)CC1 and COc1cccc(-c2cccc(NC(=O)C3CCN(Cc4ccc(O)cc4)CC3)c2)c1 are within 1.5-fold of each other in XC50: 0.821 µM for the first, 1.03 µM for the second.

CC(C)(C)NC(=O)COC(=O)c1c2c(nc3ccccc13)C(=Cc1ccc3c(c1)OCO3)CCC2 and CC(=O)N1N=C(c2[nH]c3ccc(Br)cc3c2C)OC1c1ccccc1 (centres undefined) are within 1.5-fold of each other in XC50: 0.735 µM for the first, 0.777 µM for the second.

COc1cccc(-c2nc3c(N4CCN(c5ccncc5)CC4)cccc3n2CC2CCCCCN2)n1 (centres undefined) and O=C(c1cccc(-c2cccc(-c3nc4cc(F)ccc4[nH]3)c2)c1)N1CCCCC1CN1CCC(O)C1 (centres undefined) are within 1.5-fold of each other in XC50: 1.06 µM for the first, 0.882 µM for the second.

Compared with CCOc1ccc(-c2n[nH]c(C(F)(F)F)c2-c2ccccc2OC)c(O)c1, Cc1cc(NCC(C)C)c2[nH]nc(-c3ccccc3)c2n1 is 1.5-fold lower in XC50: 1.14 µM for the first, 0.744 µM for the second.

CC1(C)CC(NC(=O)NC2CCN(Cc3ccccc3)CC2)CC(C)(CNC(=O)NC2CCN(Cc3ccccc3)CC2)C1 (centres undefined) and COc1ccc2nccc([C@@H](O)CN3CCC(NCC(O)Cc4ccccc4)CC3)c2c1 (some centres undefined) are within 1.5-fold of each other in XC50: 0.946 µM for the first, 0.671 µM for the second.

CCCNC[C@@H](O)[C@H](Cc1ccccc1)NC(=O)c1cc(NCC)cc(N2CCCC2=O)c1 and Oc1ccc(CCNc2nc(NCCOc3ccccc3-c3ccccc3)nc(N3CCNCC3)n2)cc1 are within 1.5-fold of each other in XC50: 0.76 µM for the first, 1.04 µM for the second.

Going from Cc1cccc2nc(-c3cccc(-c4ccc(NC(=O)c5ccc(=O)[nH]n5)cc4)c3)[nH]c12 to Cc1cccc2nc(-c3cccc(-c4ccc(CNCc5cccc(N)c5)cc4)c3)[nH]c12, the XC50 falls from 0.857 µM to 0.26 µM (3.3-fold).

First: Cc1c[nH]c2cc(/C=C/C(=O)NC3CCC(CCN4CCc5ccc(C#N)cc5CC4)CC3)ccc12 (centres undefined)
Second: COc1ccc2ncc(Cl)c(CCN3CCC(NCc4ccc5c(n4)NC(=O)CO5)CC3)c2c1
The XC50 of the first is 1.7-fold higher: 0.801 µM for the first, 0.47 µM for the second.

First: Nc1nccc2ccc(-c3ccc4ncccc4c3)cc12
Second: Cn1ncc2ccc(Nc3nccc(-c4ccc5c(c4)c(N)nn5C)n3)cc21
The XC50 of the first is 5.8-fold lower: 0.112 µM for the first, 0.648 µM for the second.

COc1cc(NC(=O)/C=C/c2cc(F)cc(F)c2F)cc(OCCN2CCN(CCN3CCOCC3)CC2)c1 and Cc1cc(N(C)C)nc(Nc2ccc(NC(=O)c3c(F)cccc3Cl)cc2)n1 are within 1.5-fold of each other in XC50: 0.771 µM for the first, 1.09 µM for the second.

In the case of Cn1c(=O)c2nc(-c3ccc(Cl)cc3)nnc2n(CCCC#N)c1=O, the XC50 is reported as 0.153 µM.
